Patent US20260285835A1, “SOLID FORM OF PYRROLIDONE DERIVATIVE AS GLUCOKINASE ACTIVATOR” (priority 2023, published 2026)
Where two headings read alike, the source gives them in different places.

Experiments:
[1] = Simulated metabolic test in human intestine S9; assay type: in vitro ADME
Procedure: 73.21 g of K2HPO4·3H2O (AR grade) and 10.78 g of KH2PO4 (AR grade) were dissolved in ultra-pure water to obtain a final volume of 4000 mL and a final concentration of 100 mM. The pH of the final test solution was adjusted to 7.40±0.10 with H3PO4/KOH.
An Apricot automation workstation was used to add 50 μL/well of HIS9 solution to the corresponding wells of all reaction plates (blank, T0, T5, T15, T30, T45, T60).
An Apricot automation workstation was used to add 48 μL/well of PB to the corresponding wells of every reaction plate (blank, T0, T5, T15, T30, T45, T60) to start the reaction.
The reaction plates were incubated at 37° C., and timer was started. An Apricot automation workstation was used to add 300 μL/well of stop solution (cold acetonitrile containing 200 ng/mL tolbutamide (internal standard)) to the corresponding wells of each reaction plate at the appropriate end time point to stop the reaction.
Each plate was sealed and shaken for 10 minutes. Each plate was centrifuged at 4000 rpm and 4° C. for 20 minutes. After centrifugation, 100 μL of supernatant was transferred from each reaction plate to the corresponding analysis plate, and mixed well with 300 μL of ultra-pure water.

[2] = Stability test in simulated intestinal fluid (SIF); assay type: in vitro ADME; settings: 37° C.
Procedure: 0.136 g of KH2PO4 and 0.2 g of pancreatin were dissolved in water to obtain a final volume of 20 mL. The pH of the test solution was about 6.80±0.05.
Then 200 μL of supernatant was pipetted and mixed completely again with 400 μL of cold acetonitrile containing 200 ng/mL tolbutamide (internal standard). • 7) All samples were centrifuged at 4000 rpm, 4° C. for 20 min. • 8) 60 μL of supernatant was pipetted and mixed completely with 180 μL of ultra-pure water, and the mixture was subjected to LC-MS/MS analysis.

C57BL/6J mice = experiment: Pharmacodynamic study: OGTT blood glucose and insulin level in C57BL/6J mice; assay type: in vivo; settings: for Blood glucose level at 0 min (pre-glucose) vs vehicle control group: each administration group, 1 hour after administration, dose-response relationship
Procedure: There were 7 groups of mice, with 8 mice in each group. […] Oral glucose tolerance test (OGTT) was performed 1 hour after administration. The blood glucose level in mice was tested before administration (−60 min), before sugar administration (0 min), and at 15 min, 30 min, 60 min, and 120 min after sugar administration. In addition, 40 μl of blood was collected from the tail tip before sugar administration (0 min) and at 15 min after sugar administration to collect the plasma for an insulin level test.
All data was transferred into an Excel document. The blood glucose results were expressed in mg/dL and expressed as MEAN±SEM. Differences between multiple groups were analyzed using Dunnett's method in one-way analysis of variance (ANOVA) or two-way analysis of variance (ANOVA) with Graphpad Prism 8 software for comparison, and the differences were considered statistically significant when the P value was less than 0.05.

[3] = Caco-2 bi-directional permeability test; assay type: in vitro ADME; settings: human; for metabolised at 2 h, 2 µM: Caco-2, pH 7.4, Compound A concentration 2.00 μM; for metabolised at 2 h, 10 µM: Caco-2, pH 7.4, Compound A concentration 10.0 μM; for metabolised at 2 h, 30 µM: Caco-2, pH 7.4, Compound A concentration 30.0 μM
Procedure: (§1) Caco-2 cell culture: Caco-2 cells (purchased from American Type Culture Collection, ATCC) were inoculated on polyethylene film (PET) of a 96-well culture plate at a concentration of 1×10^5 cells/cm^2. The culture medium was replaced every 4 days until cell confluency to form cell monolayer on day 21 or 28.
(§2) Transport test: Transport buffer used in the test was Hanks' Balanced Salt Solution (HBSS) containing 10 mM 2-[4-(2-hydroxyethyl)-1-piperazinyl]ethanesulfonic acid (HEPES) with a pH of 7.40±0.05. […] The final concentration of DMSO in the incubation system was adjusted to <1%.

Caco-2 cells = experiment: Caco-2 bi-directional permeability test; assay type: in vitro ADME
Procedure: as §1, §2

[4] = Stability test in simulated gastric fluid (SGF); assay type: in vitro ADME; settings: 37° C.
Procedure: 0.04 g of NaCl and 0.064 g of pepsin were dissolved in 0.14 mL of HCl, and water was added to bring the total volume to 20 mL. The pH of the test solution was about 1.20±0.05.
Then 200 μL of supernatant was pipetted and mixed completely again with 400 μL of cold acetonitrile containing 200 ng/mL tolbutamide (internal standard). 7) All samples were centrifuged at 4000 rpm, 4° C. for 20 min. • 8) 60 μL of supernatant was pipetted and mixed completely with 180 μL of ultra-pure water, and the mixture was subjected to LC-MS/MS analysis.

[5] = assay type: in vivo; settings: rats
Procedure: Each group was divided into 2 subgroups (intravenous bolus group (IV) and gavage group (PO)).
Whole blood samples (about 0.2 mL per time point) were collected at pre-dose (0), 0.083, 0.25, 0.5, 1, 2, 4, 8, 12, and 24 hours post-dose by jugular vein puncture. All the blood samples were immediately transferred into labeled pre-chilled commercial microcentrifuge tubes containing 4 μL of 0.5M K2-EDTA and 10 μL of cocktail stabilizer. Samples were placed on wet ice until centrifugation (within 30 min). Plasma samples were then prepared by centrifuging the blood samples at approximately 4° C., 3200×g for 10 minutes. Supernatant plasma was pipetted, then quickly frozen over dry ice, and then kept at −60° C. or lower temperature until LC-MS/MS analysis. The cocktail stabilizer was prepared according to the following Table 8:
The plasma concentrations were subjected to a non-compartmental pharmacokinetic analysis by using the WinNonlin™ software program (version 6.3).

[6] = High-humidity stability (90% RH) of free state crystal form A; assay type: physicochemical
Excerpt: (§3) The resulting sample was sampled at day 6, day 14 and day 34 for HPLC analysis.

[7] = Dynamic vapour sorption (DVS) test; assay type: physicochemical; settings: 25° C.
Procedure: A dynamic vapour sorption (DVS) test was conducted on crystal form A of the free state and crystal form B of the hydrochloride.
A certain amount of powder was taken and put into a sample pan, and hygroscopicity of the sample was evaluated with DVS according to the following instrument method: […]

[8] = Photostability (direct sunlight) of free state crystal form A; assay type: physicochemical
Excerpt: The resulting sample was sampled at day 4 and day 15 for HPLC analysis.

[9] = Forced degradation stability test (heat, humidity and heat, light); assay type: physicochemical; settings: light box 10 days
Procedure: About 10 mg of the sample powder was weighed and placed in a transparent vial, an amber vial, and a transparent vial sealed with aluminum foil, respectively. Those vials were placed in a light box for 10 days, with a total illumination of 1.2×10^6 Lux·hr and a near-UV energy not less than 200w·hr/m^2, for photostability evaluation.
The samples were taken at each time point for HPLC and XRPD analysis to evaluate the chemical and physical stability.

[10] = High-temperature stability (60° C.) of free state crystal form A; assay type: physicochemical
Excerpt: as §3

[11] = assay type: physicochemical; settings: room temperature
[12] = read-out: Average conversion rate to parent drug HMS5552 (%) A→B
[13] = read-out: Average conversion rate to parent drug HMS5552 (%) B→A
[14] = Compound A concentration 2.00 μM
[15] = Compound A concentration 10.0 μM, 120 min
[16] = Compound A concentration 30.0 μM, 120 min

CC(C)C[C@@H](C(=O)Nc1ccn(C[C@@H](O)COC(=O)c2cccnc2)n1)N1CC(Oc2ccccc2Cl)=CC1=O [Compound A, (R)-3-(3-((S)-2-(4-(2-chlorophenoxy)-2-oxo-2,5-dihydro-1H-pyrrol-1-yl)-4-methylpentanamido)-1H-pyrazol-1-yl)-2-hydroxypropyl nicotinate]
Parent drug HMS5552 (%) ([1]; HIS9 0.5 mg/mL, 37° C., 0 min): 1.1%
Time to complete metabolism and conversion into parent drug HMS5552 ([1]; human intestine S9): ≤ 5 min
metabolised at 5 min ([1]; human, s9, pH 7.4, HIS9 0.5 mg/mL, 37° C., 5 min, read-out: Parent drug HMS5552 (%)): 80%
metabolised at 0.25 h ([1]; human, s9, pH 7.4, HIS9 0.5 mg/mL, 37° C., 15 min, read-out: Parent drug HMS5552 (%)): 77.2%
metabolised at 0.5 h ([1]; human, s9, pH 7.4, HIS9 0.5 mg/mL, 37° C., 30 min, read-out: Parent drug HMS5552 (%)): 79.8%
metabolised at 0.75 h ([1]; human, s9, pH 7.4, HIS9 0.5 mg/mL, 37° C., 45 min, read-out: Parent drug HMS5552 (%)): 81.2%
metabolised at 1 h ([1]; human, s9, pH 7.4, HIS9 0.5 mg/mL, 37° C., 60 min, read-out: Parent drug HMS5552 (%)): 90.5%
Parent drug HMS5552 (%) ([2]; generation in SIF, 2 μM, 0 hr): 0.86%
metabolised at 1 h, 2 µM ([2]; simulated intestinal fluid, pH 6.8, generation in SIF, 1 hr, read-out: Parent drug HMS5552 (%)): 35.6%
metabolised at 2 h, 2 µM ([2]; simulated intestinal fluid, pH 6.8, generation in SIF, 2 hr, read-out: Parent drug HMS5552 (%)): 46.6%
metabolised at 6 h, 2 µM ([2]; simulated intestinal fluid, pH 6.8, generation in SIF, 6 hr, read-out: Parent drug HMS5552 (%)): 72.8%
metabolised at 24 h, 2 µM ([2]; simulated intestinal fluid, pH 6.8, generation in SIF, 24 hr, read-out: Parent drug HMS5552 (%)): 73.4%
Insulin level at 15 min vs corresponding dose group of HMS5552 (C57BL/6J mice; oral 18.4 mg/kg): significantly higher than that of the corresponding dose group of HMS5552
Insulin level at 15 min vs vehicle control group (C57BL/6J mice; oral 18.4 mg/kg): significantly higher than that of the vehicle control group
Insulin level at 15 min vs vehicle control group (C57BL/6J mice; oral 49.1 mg/kg): significantly higher than that of the vehicle control group
OGTT blood glucose values vs vehicle control group (C57BL/6J mice; oral 49.1 mg/kg, at 15 min, 30 min, 60 min and 120 min after glucose): significantly lower than that of the vehicle control group
OGTT blood glucose values vs HMS5552-40 mg/kg group (C57BL/6J mice; oral 49.1 mg/kg, at 30 min, 60 min and 120 min after glucose): significantly lower than that of the HMS5552-40 mg/kg group
Blood glucose level at 0 min (pre-glucose) vs vehicle control group (C57BL/6J mice; oral): generally lower than that of the vehicle control group
Insulin level at 0 min vs vehicle control group and HMS5552 high-dose group (C57BL/6J mice; oral, high-dose group): significantly higher than that of the vehicle control group and the HMS5552 high-dose group
OGTT AUC0-120min vs corresponding dose groups of HMS5552 (C57BL/6J mice; oral, medium and high dose groups): significantly lower than those of the corresponding dose groups of HMS5552
metabolised at 2 h, 2 µM [3, 12]: 26.5%
metabolised at 2 h, 2 µM [3, 13]: 5.8%
metabolised at 2 h, 10 µM [3, 12]: 37.4%
metabolised at 2 h, 10 µM [3, 13]: 5.6%
metabolised at 2 h, 30 µM [3, 12]: 26.8%
metabolised at 2 h, 30 µM [3, 13]: 3.4%
Average recovery rate (%) A→B (Caco-2 cells; [14]): 52.9%
Average recovery rate (%) B→A (Caco-2 cells; [14]): 87.1%
The average apparent permeability Papp A→B (Caco-2 cells; [14]): 0.02977 10^−6 cm/s
Average recovery rate (%) A→B (Caco-2 cells; [15]): 37.5%
Average recovery rate (%) B→A (Caco-2 cells; [15]): 81.6%
The average apparent permeability Papp A→B (Caco-2 cells; [15]): 0.03187 10^−6 cm/s
Average recovery rate (%) B→A (Caco-2 cells; [16]): 82.2%
The average apparent permeability Papp A→B (Caco-2 cells; [16]): 0.04322 10^−6 cm/s
Parent drug HMS5552 (%) ([4]; generation in SGF, 2 μM, 0 hr): 0.92%
metabolised at 1 h, 2 µM ([4]; simulated gastric fluid, pH 1.2, generation in SGF, 1 hr, read-out: Parent drug HMS5552 (%)): 0.86%
metabolised at 2 h, 2 µM ([4]; simulated gastric fluid, pH 1.2, generation in SGF, 2 hr, read-out: Parent drug HMS5552 (%)): 0.87%
metabolised at 6 h, 2 µM ([4]; simulated gastric fluid, pH 1.2, generation in SGF, 6 hr, read-out: Parent drug HMS5552 (%)): 1.02%
metabolised at 24 h, 2 µM ([4]; simulated gastric fluid, pH 1.2, generation in SGF, 24 hr, read-out: Parent drug HMS5552 (%)): 1.63%
Metabolism after intravenous injection (in words) [5]: metabolized very rapidly

CC(C)C[C@@H](C(=O)Nc1ccn(C[C@@H](O)CO)n1)N1CC(Oc2ccccc2Cl)=CC1=O [HMS5552, (S)-2-(4-(2-chlorophenoxy)-2-oxo-2,5-dihydro-1H-pyrrol-1-yl)-N-(1-((R)-2,3-dihydroxypropyl)-1H-pyrazol-3-yl)-4-methylpentanamide, reference compound]
OGTT blood glucose values vs vehicle control group (C57BL/6J mice; oral 40 mg/kg, at 30 min, 60 min and 120 min after glucose): significantly lower than that of the vehicle control group
Blood glucose level at 0 min (pre-glucose) vs vehicle control group (C57BL/6J mice; oral): generally lower than that of the vehicle control group
Insulin levels at 0 min and 15 min vs vehicle control group (C57BL/6J mice; oral, each dose group): slightly higher than those in the vehicle control group, without significant difference

CC(C)C[C@@H](C(=O)Nc1ccn(C[C@@H](O)COC(=O)c2cccnc2)n1)N1CC(Oc2ccccc2Cl)=CC1=O [crystal form A of the free state, (R)-3-(3-((S)-2-(4-(2-chlorophenoxy)-2-oxo-2,5-dihydro-1H-pyrrol-1-yl)-4-methylpentanamido)-1H-pyrazol-1-yl)-2-hydroxypropyl nicotinate]
Purity (Area %) ([6]; 0 hour): 98.17 Area %
High-humidity stability (HPLC), conclusion ([6]; 90% RH without cover): still stable after being placed under the condition of 90% relative humidity for 14 days
Purity (Area %) ([6]; 90% RH, Day 6, without cover): 98.99 Area %
Purity (Area %) ([6]; 90% RH, Day 14, without cover): 99.09 Area %
Moisture-induced weight gain ([7]; relative humidity of 95%): less than 0.7%
Moisture-induced weight gain ([7]; relative humidity of less than or equal to 90%): less than 0.5%
Purity (Area %) ([8]; 0 hour): 98.17 Area %
Photostability (HPLC), conclusion ([8]; direct sunlight): still stable after being placed under sunlight for 15 days
Purity (Area %) ([8]; direct sunlight, Day 4): 99.07 Area %
Purity (Area %) ([8]; direct sunlight, Day 15): 99.10 Area %
Crystalline form after forced degradation (XRPD) ([9]; 50° C., 80° C., 40° C./75% RH (unsealed), 1 day, 2 weeks, 4 weeks): does not change
Effect of light on stability ([9]; […]10^6 Lux·hr, near-UV not less than 200w·hr/m^2): no effect on the stability
Purity (Area %) ([10]; 0 h): 98.17 Area %
High-temperature stability (HPLC), conclusion ([10]; 60° C. oven without cover): still stable after being placed at 60 °C for 14 days
Purity (Area %) ([10]; 60° C., Day 6, without cover): 99.03 Area %
Purity (Area %) ([10]; 60° C., Day 14, without cover): 99.11 Area %
Solubility (mg/mL) ([11]; DMAc): S>40.0 mg/mL
Solubility (mg/mL) ([11]; DMSO): S>42.0 mg/mL
Solubility (mg/mL) ([11]; MeOH): S>42.0 mg/mL
Solubility (mg/mL) ([11]; NMP): S>40.0 mg/mL
Solubility (mg/mL) ([11]; n-Heptane): S<1.1 mg/mL
